# Experimental data published in ChEMBL document CHEMBL4342498, “Design and Discovery of an Orally Efficacious Spiroindolinone-Based Tankyrase Inhibitor for the Treatment of Colon Cancer” (J Med Chem, 2020).
# Active and inactive are the calls of the source. No cut-off for these calls is given here.
# How the values were obtained:
# physchem = conditions: phosphate buffered saline, pH 7.4
# [1] = target: T1, Poly [ADP-ribose] polymerase tankyrase-2 (Homo sapiens, UniProt Q9H2K2); assay: Inhibition of recombinant human N-terminal TEV cleavage site-fused/FLAG-poly his-tagged TNKS2 ARC5-SAM-PARP domain (613 to 1166 residues) expressed in Escherichia coli assessed as reduction in auto-PARylation preincubated for 10 mins followed by biotinylated-NAD+ addition and measured after 45 mins by ELISA
# T1 sequence (Q9H2K2 whole entry): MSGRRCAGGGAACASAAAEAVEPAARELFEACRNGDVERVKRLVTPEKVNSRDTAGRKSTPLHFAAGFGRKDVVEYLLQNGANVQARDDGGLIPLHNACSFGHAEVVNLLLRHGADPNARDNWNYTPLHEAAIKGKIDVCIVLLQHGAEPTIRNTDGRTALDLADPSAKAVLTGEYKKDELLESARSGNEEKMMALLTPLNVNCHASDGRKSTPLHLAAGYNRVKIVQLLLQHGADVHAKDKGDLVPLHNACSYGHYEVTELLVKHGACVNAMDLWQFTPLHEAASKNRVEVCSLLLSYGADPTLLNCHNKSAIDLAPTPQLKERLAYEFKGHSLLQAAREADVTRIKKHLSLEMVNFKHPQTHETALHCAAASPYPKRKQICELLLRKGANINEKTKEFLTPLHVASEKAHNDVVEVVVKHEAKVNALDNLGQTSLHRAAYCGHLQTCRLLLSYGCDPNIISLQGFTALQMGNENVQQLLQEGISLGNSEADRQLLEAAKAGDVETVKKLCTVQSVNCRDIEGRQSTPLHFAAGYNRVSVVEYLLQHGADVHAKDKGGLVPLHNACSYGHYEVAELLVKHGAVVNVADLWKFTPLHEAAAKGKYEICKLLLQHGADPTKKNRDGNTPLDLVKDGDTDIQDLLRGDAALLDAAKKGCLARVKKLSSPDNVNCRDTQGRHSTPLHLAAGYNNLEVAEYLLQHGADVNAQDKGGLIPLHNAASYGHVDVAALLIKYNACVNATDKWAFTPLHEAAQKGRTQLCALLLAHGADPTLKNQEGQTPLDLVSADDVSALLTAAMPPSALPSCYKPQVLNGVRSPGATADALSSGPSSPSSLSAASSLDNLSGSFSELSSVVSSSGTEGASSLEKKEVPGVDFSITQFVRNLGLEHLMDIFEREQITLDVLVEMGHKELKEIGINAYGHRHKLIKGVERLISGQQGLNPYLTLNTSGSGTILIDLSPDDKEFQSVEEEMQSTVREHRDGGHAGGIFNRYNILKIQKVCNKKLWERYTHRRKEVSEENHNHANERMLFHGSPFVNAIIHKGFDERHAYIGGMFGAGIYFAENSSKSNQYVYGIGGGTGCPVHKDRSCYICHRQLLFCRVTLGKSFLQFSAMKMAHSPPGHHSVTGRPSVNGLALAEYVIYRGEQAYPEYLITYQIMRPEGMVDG
# [2] = Stability in rat liver microsomes assessed as parent compound remaining at 1 uM measured after 60 mins in presence of NADPH by LC-MS/MS analysis; type: ADME, Microsome; conditions: read-out: Stability
# [3] = Stability in mouse liver microsomes assessed as parent compound remaining at 1 uM measured after 60 mins in presence of NADPH by LC-MS/MS analysis; type: ADME, Microsome; conditions: read-out: Stability
# [4] = Permeability of the compound measured after 4 hrs by PAMPA; type: ADME; conditions: read-out: permeability
# [5] = Stability in human liver microsomes assessed as parent compound remaining at 1 uM measured after 30 mins in presence of NADPH by LC-MS/MS analysis; type: ADME, Microsome; conditions: read-out: Stability
# [6] = Stability in mouse liver microsomes assessed as parent compound remaining at 1 uM measured after 30 mins in presence of NADPH by LC-MS/MS analysis; type: ADME, Microsome; conditions: read-out: Stability
# [7] = Protein binding in human plasma assessed as unbound fraction at 1 uM measured after 24 hrs by LC-MS/MS analysis; type: ADME, cell-free
# [8] = Protein binding in mouse plasma assessed as unbound fraction at 1 uM measured after 24 hrs by LC-MS/MS analysis; type: ADME, cell-free
# Tankyrase 1/2 [9] = target: T2, Tankyrase 1/2 (Homo sapiens, UniProt Q9H2K2+O95271); conditions: hek293
# T2 sequence (Q9H2K2 whole entry): T1 sequence (Q9H2K2 whole entry)
# T2 sequence (O95271 whole entry): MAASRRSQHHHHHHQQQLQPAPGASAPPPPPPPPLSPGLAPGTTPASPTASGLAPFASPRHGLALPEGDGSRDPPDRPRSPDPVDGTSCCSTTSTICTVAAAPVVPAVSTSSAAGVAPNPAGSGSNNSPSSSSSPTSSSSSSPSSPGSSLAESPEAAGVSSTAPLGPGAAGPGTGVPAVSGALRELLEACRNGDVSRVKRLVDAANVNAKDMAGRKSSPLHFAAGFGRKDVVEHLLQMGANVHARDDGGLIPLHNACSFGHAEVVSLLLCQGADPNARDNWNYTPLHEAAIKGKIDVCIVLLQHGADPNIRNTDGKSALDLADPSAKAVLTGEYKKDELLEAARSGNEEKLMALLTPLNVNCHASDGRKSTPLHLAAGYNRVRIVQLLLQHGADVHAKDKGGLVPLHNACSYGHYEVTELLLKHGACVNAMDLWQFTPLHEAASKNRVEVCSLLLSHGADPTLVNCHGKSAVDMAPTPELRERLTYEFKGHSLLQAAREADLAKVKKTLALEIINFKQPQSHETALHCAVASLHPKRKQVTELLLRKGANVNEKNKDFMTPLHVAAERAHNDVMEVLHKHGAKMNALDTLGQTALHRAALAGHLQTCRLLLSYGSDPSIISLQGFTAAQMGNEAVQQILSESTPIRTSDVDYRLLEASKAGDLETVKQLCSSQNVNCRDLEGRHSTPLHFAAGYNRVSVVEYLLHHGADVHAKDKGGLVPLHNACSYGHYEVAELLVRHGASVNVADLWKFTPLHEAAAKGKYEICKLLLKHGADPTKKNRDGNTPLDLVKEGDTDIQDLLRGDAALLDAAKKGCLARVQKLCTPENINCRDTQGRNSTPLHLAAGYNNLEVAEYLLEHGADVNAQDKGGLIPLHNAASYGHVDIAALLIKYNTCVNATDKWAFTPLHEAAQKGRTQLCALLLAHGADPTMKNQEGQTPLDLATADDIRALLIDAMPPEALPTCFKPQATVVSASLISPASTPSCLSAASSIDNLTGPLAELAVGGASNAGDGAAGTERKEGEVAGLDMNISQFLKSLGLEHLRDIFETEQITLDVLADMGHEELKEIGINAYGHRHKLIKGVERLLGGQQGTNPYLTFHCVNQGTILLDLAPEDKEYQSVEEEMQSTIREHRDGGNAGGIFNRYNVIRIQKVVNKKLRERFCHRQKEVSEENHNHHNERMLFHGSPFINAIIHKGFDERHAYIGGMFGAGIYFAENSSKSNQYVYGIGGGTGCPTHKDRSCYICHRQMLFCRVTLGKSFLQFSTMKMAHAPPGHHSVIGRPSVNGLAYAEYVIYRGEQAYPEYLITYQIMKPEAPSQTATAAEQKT
# Description: Inhibition of TNKS/TNKS2 (unknown origin) expressed in HEK293 cells assessed as reduction in Wnt-signaling measured after 24 hrs by TCF-luciferase reporter gene assay
# [10] = Stability in rat liver microsomes assessed as parent compound remaining at 1 uM measured after 30 mins in presence of NADPH by LC-MS/MS analysis; type: ADME, Microsome; conditions: read-out: Stability
# Tankyrase 1/2 [11] = target: T2, Tankyrase 1/2
# Description: Inhibition of TNKS/TNKS2 (unknown origin) expressed in human DLD1 cells assessed as reduction in Wnt-signaling measured after 24 hrs by TCF-luciferase reporter gene assay
# COLO 320DM [12] = assay: Antiproliferative activity against human COLO320DM cells assessed as inhibition of cell growth measured after 4 days by CellTiter-Glo assay; type: functional; conditions: 96 h
# [13] = target: T3, Poly [ADP-ribose] polymerase tankyrase-1 (Homo sapiens, UniProt O95271)
# T3 sequence (O95271 whole entry): T2 sequence (O95271 whole entry)
# Description: Inhibition of recombinant human N-terminal TEV cleavage site-fused/FLAG-poly his-tagged TNKS SAM-PARP domain (1024 to 1327 residues) expressed in Escherichia coli assessed as reduction in auto-PARylation preincubated for 10 mins followed by biotinylated-NAD+ addition and measured after 45 mins by ELISA
# [14] = Stability in human liver microsomes assessed as parent compound remaining at 1 uM measured after 60 mins in presence of NADPH by LC-MS/MS analysis; type: ADME, Microsome; conditions: read-out: Stability
# [15] = Dose normalized initial plasma concentration in Sprague-Dawley rat at 1 mg/kg, iv; type: ADME, organism-based; conditions: in vivo
# [16] = target: T4, Tankyrase 1/2 (Homo sapiens) (UniProt Q9H2K2+O95271); assay: Inhibition of TNKS/TNKS2-mediated WNT/beta-catenin signaling pathway in human COLO320DM cells assessed as upregulation of AXIN2 expression at 0.1 uM measured after 16 hrs by Western blot analysis relative to control; type: cell-based
# COLO 320DM [17] = assay: Antitumor activity against human COLO320DM cells xenografted in Prkdc-NOD-SCID CB17 mouse assessed as tumor growth inhibition at 300 mg/kg, po administered twice daily for 5 days followed by 2 days interval for 2 cycles relative to control; type: functional; conditions: read-out: TGI
# RKO = assay: Antiproliferative activity against human RKO cells assessed inhibition of cell growth measured after 5 days by MTT assay; type: functional; conditions: 120 h
# [18] = target: Poly [ADP-ribose] polymerase 1 (Homo sapiens, UniProt P09874); assay: Inhibition of recombinant human PARP1 expressed in Escherichia coli assessed as reduction in auto-PARylation using histone as substrate measured after 45 mins in presence of biotinylated-NAD+ by ELISA
# Sequence of Poly [ADP-ribose] polymerase 1 (P09874 whole entry): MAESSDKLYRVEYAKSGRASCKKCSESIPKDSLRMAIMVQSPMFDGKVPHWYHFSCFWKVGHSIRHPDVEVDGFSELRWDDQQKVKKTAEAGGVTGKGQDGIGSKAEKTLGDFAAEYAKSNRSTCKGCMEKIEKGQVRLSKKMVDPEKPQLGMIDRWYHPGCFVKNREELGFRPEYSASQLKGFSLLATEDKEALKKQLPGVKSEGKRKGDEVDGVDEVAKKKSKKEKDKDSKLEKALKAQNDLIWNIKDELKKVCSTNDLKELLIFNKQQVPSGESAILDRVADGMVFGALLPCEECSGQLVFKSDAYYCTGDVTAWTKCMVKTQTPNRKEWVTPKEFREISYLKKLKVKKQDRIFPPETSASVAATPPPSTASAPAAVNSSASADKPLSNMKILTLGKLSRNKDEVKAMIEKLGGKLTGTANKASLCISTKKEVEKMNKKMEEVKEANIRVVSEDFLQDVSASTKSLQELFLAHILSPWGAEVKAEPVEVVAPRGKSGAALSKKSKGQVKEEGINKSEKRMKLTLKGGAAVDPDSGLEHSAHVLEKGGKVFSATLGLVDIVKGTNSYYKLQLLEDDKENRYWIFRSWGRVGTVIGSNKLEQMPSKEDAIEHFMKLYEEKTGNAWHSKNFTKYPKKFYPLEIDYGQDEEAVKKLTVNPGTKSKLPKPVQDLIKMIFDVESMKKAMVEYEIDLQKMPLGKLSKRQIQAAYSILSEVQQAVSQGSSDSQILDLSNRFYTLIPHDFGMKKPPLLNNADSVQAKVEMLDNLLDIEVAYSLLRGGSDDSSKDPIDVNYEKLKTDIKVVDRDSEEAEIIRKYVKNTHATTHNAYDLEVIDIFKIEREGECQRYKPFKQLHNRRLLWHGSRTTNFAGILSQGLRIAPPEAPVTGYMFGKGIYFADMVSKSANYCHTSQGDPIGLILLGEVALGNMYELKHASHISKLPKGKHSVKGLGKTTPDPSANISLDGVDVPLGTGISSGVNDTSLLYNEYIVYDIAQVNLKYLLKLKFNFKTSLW
# [19] = Dose normalized AUC (infinity) in Sprague-Dawley rat at 1 mg/kg, iv; type: ADME, organism-based; conditions: in vivo
# COLO 320DM [20] = assay: Antitumor activity against human COLO320DM cells xenografted in Prkdc-NOD-SCID CB17 mouse assessed as tumor growth inhibition at 150 mg/kg, ip administered twice daily for 5 days followed by 2 days interval for 2 cycles relative to control; type: functional; conditions: read-out: TGI
# COLO 320DM [21] = assay: Antiproliferative activity against human COLO320DM cells assessed inhibition of cell growth measured after 5 days by MTT assay; type: functional; conditions: 120 h
# [22] = Efflux ratio of permeability across basolateral to apical side over apical to basolateral side in MDCK2 cells; type: ADME, cell-based, Canis lupus familiaris, MDCK-II; conditions: dog, mdck
# [23] = Net efflux ratio of permeability across basolateral to apical side over apical to basolateral side in MDCK2-MDR1 cells to MDCK2 cells; type: ADME, cell-based, Canis lupus familiaris; conditions: dog, mdck
# MDR1 = assay: Efflux ratio of permeability across basolateral to apical side over apical to basolateral side in MDCK2-MDR1 cells; type: ADME, cell-based, Canis lupus familiaris; conditions: dog, MDCK-MDR1
# [24] = target: T4, Tankyrase 1/2 (Homo sapiens); assay: Inhibition of TNKS/TNKS2-mediated WNT/beta-catenin signaling pathway in human COLO320DM cells assessed as upregulation of AXIN2 expression at 0.33 uM measured after 16 hrs by Western blot analysis; type: cell-based
# [25] = target: T4, Tankyrase 1/2 (Homo sapiens); assay: Inhibition of TNKS/TNKS2-mediated WNT/beta-catenin signaling pathway in human COLO320DM cells assessed as reduction in beta-catenin expression at 0.33 uM measured after 16 hrs by Western blot analysis; type: cell-based
"solubility at 1 h, 200 µM (physchem) [µg/mL]",IC50 [1] [nM],"remaining at 1 h, 1 µM [2] [%]","remaining at 1 h, 1 µM [3] [%]",Papp at 4 h [4] [×10⁻⁶ cm/s],"remaining at 0.5 h, 1 µM [5] [%]","remaining at 0.5 h, 1 µM [6] [%]","fraction unbound at 24 h, 1 µM [7]","fraction unbound at 24 h, 1 µM [8]",IC50 (Tankyrase 1/2 [9]) [nM],"remaining at 0.5 h, 1 µM [10] [%]",IC50 (Tankyrase 1/2 [11]) [nM],GI50 (COLO 320DM [12]) [nM],IC50 [13] [nM],"remaining at 1 h, 1 µM [14] [%]",C0/dose [15] [µM],AUC/dose [19] [µmol·h/L],GI50 (COLO 320DM [21]) [nM],efflux ratio [22],Compound,GI50 (RKO) [nM],also measured
40.2,21.4,0.2,0.2,3.3,7.4,0.3,0.005,0.002,2.7,0.4,7,250,13.6,1.4,,,,,CN1CCCc2c1nc(N1CCC3(CC1)CN(CCO)c1cc(F)cc(F)c13)[nH]c2=O,,
,,3.2,3.2 to 18.3,2,,,0.004 to 0.015,0.004 to 0.015,12.1,12.8,77.6,1630,,2.2 to 5.9,9.84,4.42,450,,O=c1[nH]c(N2CCC3(CC2)CN(CCO)c2cc(F)cc(F)c23)nc2c1CCCC2,> 10000,fold change (FC) [16]: 4.42; inhibition in vivo at 300 mg/kg (COLO 320DM [17]): 51.9%; IC50 [18]: > 100000 nM; inhibition in vivo at 150 mg/kg (COLO 320DM [20]): 47.2%
,,,95.8,,,,0.028,0.035,,,,1500,,100,1.54,0.79,430,,CS(=O)(=O)c1ccc(-c2nnc(/C=C/c3nnc(-c4ccc(C#N)cc4)o3)n2-c2ccccc2Cl)nc1,8900,
82.9,13.5,0.5,2 to 8.5,3,21,21.2,0.022,0.083,1.1,2,3.9,250,7.5,6.3,,,,6.4,CN1CCCc2c1nc(N1CCC3(CC1)C(=O)N(CCO)c1cc(F)cc(F)c13)[nH]c2=O,,Ratio [23]: 3.8; efflux ratio (MDR1): 24.6
98.4,9.9,,93.3,,,,,,507,,1877,300,4.2,97.6,,,,0.3,CN1CCCc2c1nc(N1CCC3(CC1)C(=O)N(C)c1cc(OCC(=O)O)cc(F)c13)[nH]c2=O,,inhibition [24]: inactive; Ratio [23]: 1; efflux ratio (MDR1): 0.3; inhibition [25]: inactive
